Data set [1] deals with NK1R, NK2R and NK3R. To be noted: cited from earlier work.
In data set [2] the test system is humans. To be noted: cited from earlier work.
Data set [3] relates to mice. As to the kind of experiment: Saccharin-conditioned taste avoidance. In kind it is in vivo, mouse. To be noted: 0.15% saccharin, s.c. 325 nmol kg^−1 EB1002 or 10 nmol kg^−1 semaglutide, n = 10 per group.

The source of these data is paper PMC11602716 (Nature, 2024).

For the compound neurokinin A (4–10)-S5K/L9mL/M10Nle, the NK2R selectivity entry in data set [1] is given as “some degree of selectivity”. retatrutide: in data set [2], the average weight loss result is given as “up to 22.1%”. With `CC[C@H](C)[C@H](NC(=O)[C@H](Cc1ccccc1)NC(=O)[C@H](CCC(=O)O)NC(=O)[C@H](CCCCNC(=O)COCCOCCNC(=O)COCCOCCNC(=O)CC[C@H](NC(=O)CCCCCCCCCCCCCCCCC(=O)O)C(=O)O)NC(=O)[C@H](C)NC(=O)[C@H](C)NC(=O)[C@H](CCC(N)=O)NC(=O)CNC(=O)[C@H](CCC(=O)O)NC(=O)[C@H](CC(C)C)NC(=O)[C@H](Cc1ccc(O)cc1)NC(=O)[C@H](CO)NC(=O)[C@H](CO)NC(=O)[C@@H](NC(=O)[C@H](CC(=O)O)NC(=O)[C@H](CO)NC(=O)[C@@H](NC(=O)[C@H](Cc1ccccc1)NC(=O)[C@@H](NC(=O)CNC(=O)[C@H](CCC(=O)O)NC(=O)C(C)(C)NC(=O)[C@@H](N)Cc1cnc[nH]1)[C@@H](C)O)[C@@H](C)O)C(C)C)C(=O)N[C@@H](C)C(=O)N[C@@H](Cc1c[nH]c2ccccc12)C(=O)N[C@@H](CC(C)C)C(=O)N[C@H](C(=O)N[C@@H](CCCNC(=N)N)C(=O)NCC(=O)N[C@@H](CCCNC(=N)N)C(=O)NCC(=O)O)C(C)C` [semaglutide], the conditioned taste avoidance result in data set [3] is given as “aversive”. As for survodutide, the average weight loss entry in data set [2] was “up to 14.9%”.
